Earlier results as cited in patent US8415299B2, “Methods for improved avian performance” (priority 2004, dated 2013).

Experiments:
[1] = test system: laying hens; conditions: cited from earlier work
[2] = test system: T4 and rT3 deiodination systems; conditions: rat liver homogenates; cited from earlier work

Q: For `C[C@]12C[C@H](O)[C@H]3[C@@H](CCC4=CC(=O)CC[C@@]43C)[C@@H]1CC[C@@H]2C(=O)CO` [corticosterone], which “Laying hens with cessation of egg production” value ([1]; 20 to 40 mg/kg diet (Wolford et al. 1983)) is on record?
A: 98%

Q: Which results are given for `[Zn+2]` [zinc]?
A: Inhibition of T4 and rT3 deiodination [2]: potent inhibitor; Action on progesterone production in F1 granulosa cells of the ovary ([1]; 2,800 mg/kg diet (Johnson and Brake 1992)): inhibitory action

Q: Which Body weight ([1]; single i.m. depot injection releasing 60 mcg/kg body weight per day for 30 days) does the source give for `CCNC(=O)[C@@H]1CCCN1C(=O)[C@H](CCCNC(=N)N)NC(=O)[C@H](CC(C)C)NC(=O)[C@@H](CC(C)C)NC(=O)[C@H](Cc1ccc(O)cc1)NC(=O)[C@H](CO)NC(=O)[C@H](Cc1c[nH]c2ccccc12)NC(=O)[C@H](Cc1c[nH]cn1)NC(=O)[C@@H]1CCC(=O)N1` [leuprolide acetate] here?
A: no body weight loss

Q: And the Egg production ([1]; single i.m. depot injection releasing 60 mcg/kg body weight per day for 30 days, second week (Burke and Attia 1994))?
A: 3.5%

Q: With `C=C1C[C@H]2[C@@H]3C=C(C)C4=CC(=O)CC[C@]4(C)[C@H]3CC[C@]2(C)[C@@]1(OC(C)=O)C(C)=O` [melengestrol acetate] as the compound, how does the “Effect on reproductive system” value ([1]; 4 or 8 mg per laying hen per day through the feed (Koch et al. 2004)) read?
A: reversible regression of the reproductive system

Q: With `I` [iodide] as the compound, how does the “Effect on egg production” value ([1]; 5,000 mg/kg diet) read?
A: cessation of egg production
